Values of other authors in US20030215917A1, “Assay for evaluation of activity of compounds against HCV using a novel detection system in the HCV replicon” (priority 2002, published 2003).

Assays:
[1] = tested on: HCV and HCV replicon; conditions: stated as known
[2] = tested on: Hepatitis B virus (HBV), Hepatitis C virus (HCV), Yellow Fever virus, Dengue Virus, Japanese Encephalitis, West Nile virus and related flaviviruses
[3] = tested on: host cells
[4] = tested on: HCV replicon cells; conditions: at high concentration; stated as known

Compound | inhibition of viral replication [1] | activity against viruses [2] | inhibition of the replication of the virus (viral growth) [2] | toxicity to the host cells [3] | cytotoxicity effect [4]
interferon alpha | known to inhibit viral replication |  |  |  | 
O=C1OCc2c1cc1ccc3c(c1c2-c1ccc2c(c1)OCO2)OCO3 [Helioxanthin] |  | high activity | potent inhibition | very low toxicity | known to have cytotoxicity effect at high concentration
